Tests used:
[1] = test system: human corneal epithelial cells (HCEpCs); assay: PDMS stencil wound assay, HCEpCs, bolus HA or MMP-9; format: cell-based; conditions: for increase of wound healing rate: 0.1-0.6 mg/mL
Procedure: HCEpCs were cultured in a T-25 flask with keratinocyte serum-free media supplemented with keratinocyte growth serum and penicillin/streptomycin (KM; Sciencell) that was changed every other day. The SV-40 immortalized HCEpCs were generously donated from a collaborator (for example, see: F. Li, M. Griffith, Z. Li, S. Tanodekaew, H. Sheardown, M. Hakim, and D. J. Carlsson, “Recruitment of multiple cell lines by collagen-synthetic copolymer matrices in corneal regeneration,” Biomaterials, vol. 26, no. 16, pp. 3093-3104, 2005 Jun. 1, doi: https://doi.org/10.1016/j.biomaterials.2004.07.063; and/or M. Griffith, R. Osborne, R. Munger, X. Xiong, C. J. Doillon, N. L. C. Laycock, M. Hakim, Y. Song, and M. A. Watsky, “Functional Human Corneal Equivalents Constructed from Cell Lines,” Science, vol. 286, no. 5447, pp. 2169-2172, 1999, doi: 10.1126/science.286.5447.2169, the entire contents of which are incorporated herein by reference). Once confluence was reached, the HCEpCs were passaged in 2 ml of TrypLE Express (GIBCO, Life Technologies, Thermo Scientific) and subcultured for the wound assay as described previously. The HCEpCs were cultured with KM until a monolayer had formed. Wound assays were conducted as described above for RCEpCs. The well was then rinsed with PBS and replaced with KM. Images were taken daily to observe the closure of the wound and graphs were generated using GraphPad Prism 6.
(§1) To validate the wound assays 200 kDa hyaluronic acid (151-300 kDa HA; Lifecore Biomedicals) were added to the media of both RCEpC and HCEpC PDMS wound assays. Once the wound assays were validated, the efficacy of medium sized 60 kDa HA (66-99 kDa; Lifecore Biomedicals) was investigated. Various concentrations of 60 kDa HA were dissolved in KM and added as a bolus dosage to HCEpC wound assays. The media was changed daily until full closure of the wound. Images were taken daily to observe the closure of the wound and graphs were generated using GraphPad Prism 6.
(§2) To verify if the wound assay could provide a consistent initial wound area to two different corneal epithelial cell types, 1 mm diameter PDMS wound assays were performed with both rabbit corneal epithelial cells (RCEpCs; FIG. 20A) and human corneal epithelial cells (HCEpCs; FIG. 20B). Primary RCEpCs were initially used as they would behave similar to future in vivo rabbit studies. Healing of the wound varied between the two cell-types, with the primary RCEpC wound healing within 2 days and the HCEpC wound healing in 7 days (FIG. 20C). […] The improvement was narrowed to 21% (95.9%±6.9% wound closure) at 18.5 hours, compared to the control (74.9%±9.0%). […] HA was confirmed to be a potential drug due to its consistency among cell types, rapid ability to heal wounds, low minimum effective concentration, and cost efficiency.
Most literature assesses the effects of native high molecular weight HA and oligomer HA on epithelial wound healing. To obtain an ideal MMP-9 controlled release profile, the influence of mid-size 60 kDa HA on corneal wound healing was investigated. PDMS-stencil wound assays were conducted using 0.05, 0.1, 0.3, 0.6, or 1.0 mg/ml of 60 kDa HA treatments daily (FIG. 21A). A 250 ng/ml MMP-9 sample was included to observe the effects of the enzyme on wound healing, similar to an in vivo environment.

[2] = test system: rabbit corneal epithelial cells (RCEpCs); assay: PDMS stencil wound assay, RCEpCs, bolus HA; format: cell-based
Procedure: Primary rabbit corneal epithelial cells (Cell Biologics Inc.) were cultured using a T-25 flask in epithelial cell media supplemented with insulin-transferrin-selenium, epidermal growth factor, L-glutamine, antibiotic-antimycotic solution and fetal bovine serum (Cell Biologics Inc.). Once confluence was reached, the RCEpCs were briefly rinsed with PBS and passaged with trypsin-EDTA (GIBCO, Thermo Scientific). The cells were then sub-cultured on a 24-well plate surface pre-coated with a gelatin-based coating (Cell Biologics Inc.) containing a thin, punched out poly-dimethyl siloxane (PDMS) stencil adhered to the surface. The media was changed daily until a cell monolayer was formed. The PDMS disk stencil was then carefully removed from the surface. The well was then rinsed with PBS and replaced with epithelial cell media. Images were taken daily to observe the closure of the wound and graphs were generated using GraphPad Prism 6.
as §1, §2

Row | Substance | increase of wound healing rate ([1]; 60 hours) [%] | increase of wound healing rate ([1]; first 24 hours) [%] | wound healing compared to the control ([1]; 0.3, 0.6, and 0.05 mg/ml daily) | wound healing compared to the control ([1]; the other HA samples (of 0.05, 0.1, 0.3, 0.6, 1.0 mg/ml) daily) | improvement in wound healing relative to the control ([2]; 0.45 mg/ml HA, 4 hours) [%] | wound closure ([2]; 0.45 mg/ml HA, 4 hours) | improvement in wound healing relative to the control ([2]; 0.45 mg/ml HA, 18.5 hours) [%] | wound closure ([2]; 0.45 mg/ml HA, 18.5 hours) | improvement in wound healing relative to the control ([2]; 0.75 mg/ml HA, 12 hours) [%] | wound closure ([2]; 0.75 mg/ml HA, 12 hours) | improvement in wound healing relative to the control ([1]; 0.45 mg/ml HA, 33 hours) [%] | wound closure ([1]; 0.45 mg/ml HA, 33 hours) | improvement in wound healing relative to the control ([1]; 0.45 mg/ml HA, 59.5 hours) [%] | wound closure ([1]; 0.45 mg/ml HA, 59.5 hours) | improvement in wound healing relative to the control ([1]; 0.75 mg/ml HA, 18.5 hours) [%] | wound closure ([1]; 0.75 mg/ml HA, 18.5 hours) | improvement in wound healing relative to the control ([1]; 0.75 mg/ml HA, 59.5 hours) [%] | wound closure ([1]; 0.75 mg/ml HA, 59.5 hours)
1 | hyaluronic acid [60 kDa HA] | 24 | 40 | healed rapidly | slowed wound healing compared to the control | – | – | – | – | – | – | – | – | – | – | – | – | – | –
2 | hyaluronic acid [HA] | – | – | – | – | 149 | 36.4%±14.6% | 21 | 95.9%±6.9% | 35 | 64.9%±13.6% | 31 | 42.8%±7.2% | 19 | 81.8%±7.6% | 58 | 27.5%±7.1% | 26 | 86.5%±4.2%

From patent US20220168472A1, “ENZYME-DEGRADABLE HYDROGEL FOR DELIVERY OF A PAYLOAD” (priority 2019, published 2022)
